# In patent publication US20190022225A1, “PROTOCOL FOR INCREASING LIFE EXPECTANCY IN A TEST SUBJECT” (Mayo Foundation for Medical Education and Research, priority 2015, published 2019):
# “Also recorded” adds a separate entry of the source.
# Tests used:
# [1] = system: 3MR mice with bleomycin induced lung injury; test: Bleomycin induced lung injury model; type: in vivo, mouse; conditions: for lung compliance (static and dynamic) / lung elastance: 21 days post-bleomycin, Nutlin-3A data not statistically significant
# Experimental: One animal model study assessed the effect of clearance of senescence cells in the transgenic mouse strain 3MR that has bleomycin induced lung injury. […] Control mice were administered saline. The day following bleomycin treatment, ganciclovir (GCV) (25 mg/kg in PBS) was administered. 3MR mice were treated via intraperitoneal injection with ganciclovir for 5 consecutive days, followed by 5 days of rest, followed by a second treatment cycle of 5 consecutive days. Untreated mice received an equal volume of vehicle. At 7, 14, and 21 days post-bleomycin treatment, lung function was assessed by monitoring oxygen saturation using the MouseSTAT PhysioSuite pulse oximeter (Kent Scientific). Animals were anesthetized with isoflurane (1.5%) and a toe clip was applied. Mice were monitored for 30 seconds and the average peripheral capillary oxygen saturation (SpO2) measurement over this duration was calculated. […] At 21 days post-bleomycin treatment, airway hyper-reactivity (AHR) of mice was examined. AHR of mice was measured by methacholine challenge while other parameters of lung function (airway mechanics, lung volume and lung compliance) were determined using a SCIREQ flexiVent ventilator. While under ketamine/xylazine anesthesia and subjected to cannulation of the trachea via a tracheostomy (19Fr blunt Luer cannula), airway resistance (elastance) and compliance of mice were assessed at baseline and in response to increasing concentrations of methacholine (0 to 50 mg/ml in PBS) delivered via nebulization (AeroNeb) as described in Aravamudan et al. (Am. J. Physiol. Lung Cell. Mol. Physiol. (2012) 303:L669-L6810). Animals were maintained at 37° C., and while under muscle paralysis (pancuronium); airway function was measured by using the FlexiVent ventilator and lung mechanics system (SCIREQ, Montreal, Quebec, Canada), which was housed on Stabile 8. […] As shown in FIGS. 60B-C, bleomycin administration reduced static compliance and (dynamic) compliance in vehicle treated mice. […] Mice were euthanized by i.p injection of pentobarbital. Bronchoalveolar lavage (BAL) fluids and lungs is obtained and analyzed. Hydroxyproline content of lungs is measured as described in Christensen et al. (1999, Am. J. Pathol. 155:1773-1779), and quantitative histopathology is performed. RNA is extracted from lung tissue to measure senescence cell markers by qRT-PCR in treated and control mice.
# [2] = system: senescent cells in osteoarthritic joint of mice after ACL surgery; test: Osteoarthritis mouse model (ACL surgery), intra-articular treatment; type: in vivo; conditions: for histopathology: destruction of the proteoglycan layer: Nutlin-3A in C57BL/6J, GCV 2.5 μg intra-articular in 3MR mice
# Experimental: Parallel studies were performed. One study investigated the effect of eliminating senescent cells with ganciclovir (GCV) in 3MR mice. Mice underwent surgery to cut the anterior cruciate ligament of one rear limb to induce osteoarthritis in the joint of that limb. During week 2 post-surgery, 3MR mice received 2.5 μg GCV to the operated knee by intra-articular injection, qd for 5 days, with a 2nd treatment (2.5 μg GCV qd for 5 days) during week 4 post-surgery. At the end of 4 weeks post-surgery, operated joints of the mice were monitored for presence of senescent cells, assessed for function, monitored for markers of inflammation, and underwent histological assessment.
# In a parallel study, C57BL/6J mice underwent surgery to cut the anterior cruciate ligament of one rear limb to induce osteoarthritis in the joint of that limb. During week 3 and week 4 post-surgery, the mice were treated with 5.8 μg of Nutlin-3A (n=7) per operated knee by intra-articular injection, qod for 2 weeks. At the end of 4 weeks post-surgery, joints of the mice were monitored for presence of senescent cells, assessed for function, monitored for markers of inflammation, and underwent histological assessment.
# Two control groups of mice were included in the studies performed: one group comprising C57BL/6J or 3MR mice that had undergone a sham surgery (n=3) (i.e., surgical procedures followed except for cutting the ACL) and intra-articular injections of vehicle parallel to the GCV-treated group; and one group comprising C57BL/6J or 3MR mice that had undergone an ACL surgery and received intra-articular injections of vehicle (n=5) parallel to the GCV-treated group.
# RNA from the operated joints of mice from the Nutlin-3A treated mice was analyzed for expression of SASP factors (mmp3, IL-6) and senescence markers (p16). qRT-PCR was performed to detect mRNA levels. […] RNA from the operated joints of mice was also analyzed for expression of type 2 collagen and compared with expression of actin as a control.
# Function of the limbs was assessed 4 weeks post-surgery by a weight bearing test to determine which leg the mice favored (FIG. 39). The mice were allowed to acclimate to the chamber on at least 3 occasions prior to taking measurements. Mice were maneuvered inside the chamber to stand with 1 hind paw on each scale. The weight that was placed on each hind limb was measured over a 3-second period. At least 3 separate measurements were made for each animal at each time point. The results were expressed as the percentage of the weight placed on the operated limb versus the contralateral unoperated limb.
# The function of the limbs was also assessed at 4 weeks post-surgery by hotplate analysis to show sensitivity and reaction to pain stimulus. In brief, a mouse was placed on a hotplate at 55° C. When placed on the hot surface of the plate, mice will lift their paws and lick them (paw-lick response) due to attainment of pain threshold. The latency period for the hind limb response (paw-lick response) is recorded as response time.
# Histopathology of osteoarthritis induced by ACL surgery illustrated that the proteoglycan layer was destroyed.
Structure (SMILES),lung compliance (static and dynamic) [1],lung elastance [1],peripheral capillary oxygen saturation (SpO2) ([1]; approached normal levels at 21 days post bleomycin),histopathology: destruction of the proteoglycan layer [2],"senescent cells in the joint (p16, IL-6, MMP13 mRNA) ([2]; 5.8 μg per operated knee intra-articular qod for 2 weeks, 4 weeks post-surgery)",weight bearing test (favoring the unoperated hind limb) ([2]; 4 weeks post-surgery),"hotplate paw-lick response time ([2]; 55° C., 4 weeks post-surgery)","type 2 collagen expression in operated joints ([2]; relative to actin, versus untreated OA surgery mice)"
Nc1nc(O)c2ncn(COC(CO)CO)c2n1 [ganciclovir],improved compliance values significantly,reduced lung elastance,higher SpO2 levels,same impact on pathophysiology of osteoarthritis as Nutlin-3A,,,,
COc1ccc(C2=N[C@@H](c3ccc(Cl)cc3)[C@@H](c3ccc(Cl)cc3)N2C(=O)N2CCNC(=O)C2)c(OC(C)C)c1 [Nutlin-3a],increased lung compliance,reduced lung elastance,,completely abrogated this effect,clears senescent cells from the joint,abrogates this effect,decreases the response time in a significant manner; also recorded: reduces response time,drives ab initio collagen production
